Reference: US20110039721A1, “METHOD FOR PREDICTION ABOUT CARCINOGENICITY OF SUBSTANCE IN RODENT” (Chemicals Evaluation and Research Institute, priority 2007, published 2011)

Columns and labels:
[1] = tested on: mRNA expressed from the genes (A) to (D) in rat liver; test: Behavior of genes (mRNA expression level, oligo-DNA microarray) in rat liver after 28-day oral administration; type: in vivo; settings: mRNA vs vehicle control group
Summary of the method: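 Male F344 SPF rats, 5 weeks old, four per group, dosed by oral gavage once daily for 28 days with test chemical or matched-volume solvent. Liver total RNA profiled on oligo-DNA microarray. Change ≥1.5-fold or ≤1/1.5 versus vehicle counted as significant if its direction matched that seen with other carcinogens.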

liver = settings: in vivo; cited from earlier work
rodent = settings: in vivo; cited from earlier work
[2] = gene group (A), Unigene No. Rn.167075
[3] = gene group (C), Unigene No. Rn.120914

C=CCc1ccc2c(c1)OCO2 [TS025, Safrole]
Behavior of gene caused by administration of chemical substance, Gene No. 4846 ([1]; gene group (A), Unigene No. Rn.144554): + | Behavior of gene caused by administration of chemical substance, Gene No. 2026 [1, 2]: − | Behavior of gene caused by administration of chemical substance, Gene No. 4218 [1, 2]: + | Behavior of gene caused by administration of chemical substance, Gene No. 6182 ([1]; gene group (A), Unigene No. Rn.5834): + | Behavior of gene caused by administration of chemical substance, Gene No. 5600 ([1]; gene group (A), Unigene No. Rn.9836): + | Behavior of gene caused by administration of chemical substance, Gene No. 1494 ([1]; gene group (B), Unigene No. Rn.1430): + | Behavior of gene caused by administration of chemical substance, Gene No. 2045 ([1]; gene group (B), Unigene No. Rn.19329): + | Behavior of gene caused by administration of chemical substance, Gene No. 2203 ([1]; gene group (B), Unigene No. Rn.21240): + | Behavior of gene caused by administration of chemical substance, Gene No. 533 ([1]; gene group (C), Unigene No. Rn.106184): + | Behavior of gene caused by administration of chemical substance, Gene No. 725 ([1]; gene group (C), Unigene No. Rn.108075): + | Behavior of gene caused by administration of chemical substance, Gene No. 1163 ([1]; gene group (C), Unigene No. Rn.11766): − | Behavior of gene caused by administration of chemical substance, Gene No. 4973 ([1]; gene group (C), Unigene No. Rn.118529): + | Behavior of gene caused by administration of chemical substance, Gene No. 4095 ([1]; gene group (C), Unigene No. Rn.119024): + | Behavior of gene caused by administration of chemical substance, Gene No. 1334 [1, 3]: − | Behavior of gene caused by administration of chemical substance, Gene No. 6620 [1, 3]: − | Behavior of gene caused by administration of chemical substance, Gene No. 6303 ([1]; gene group (C), Unigene No. Rn.123063): + | Behavior of gene caused by administration of chemical substance, Gene No. 5878 ([1]; gene group (C), Unigene No. Rn.143213): − | Behavior of gene caused by administration of chemical substance, Gene No. 1131 ([1]; gene group (C), Unigene No. Rn.144946): − | Behavior of gene caused by administration of chemical substance, Gene No. 1562 ([1]; gene group (C), Unigene No. Rn.14744): − | Behavior of gene caused by administration of chemical substance, Gene No. 1741 ([1]; gene group (C), Unigene No. Rn.1647): + | Behavior of gene caused by administration of chemical substance, Gene No. 893 ([1]; gene group (C), Unigene No. Rn.164817): − | Behavior of gene caused by administration of chemical substance, Gene No. 6026 ([1]; gene group (C), Unigene No. Rn.167685): − | Behavior of gene caused by administration of chemical substance, Gene No. 154 ([1]; gene group (C), Unigene No. Rn.185941): + | Behavior of gene caused by administration of chemical substance, Gene No. 1993 ([1]; gene group (C), Unigene No. Rn.18728): − | Behavior of gene caused by administration of chemical substance, Gene No. 813 ([1]; gene group (C), Unigene No. Rn.201760): + | Behavior of gene caused by administration of chemical substance, Gene No. 2494 ([1]; gene group (C), Unigene No. Rn.23969): − | Behavior of gene caused by administration of chemical substance, Gene No. 2546 ([1]; gene group (C), Unigene No. Rn.24561): − | Behavior of gene caused by administration of chemical substance, Gene No. 3776 ([1]; gene group (C), Unigene No. Rn.43232): + | Behavior of gene caused by administration of chemical substance, Gene No. 3929 ([1]; gene group (C), Unigene No. Rn.4620): − | Behavior of gene caused by administration of chemical substance, Gene No. 1119 ([1]; gene group (C), Unigene No. Rn.9757): − | Behavior of gene caused by administration of chemical substance, Gene No. 6742 ([1]; gene group (C), Unigene No. Rn.9779): + | Behavior of gene caused by administration of chemical substance, Gene No. 5634 ([1]; gene group (C), Unigene No. Rn.9862): + | Behavior of gene caused by administration of chemical substance, Gene No. 5726 ([1]; gene group (D), Unigene No. Rn.9939): − | Liver carcinogenicity (liver): Cr+ | Carcinogenicity (rodent): C+
